Experimental findings from patent US9421273B2, “Silicon-containing fumaric acid esters” (Biogen Idec MA Inc., priority 2011, dated 2016) are described below.

Structures can show the parent of a compound that is named as a salt.

For assay [1], the system named is Nrf2 (ARE-luciferase reporter) in DLD-1/ARE-E2 cells. Briefly: Nrf2 activation cell-based assay, ARE-luciferase reporter, DLD-1/ARE-E2 cell line. Details: species or system Human. The settings on record: for Concentration at maximum Nrf2 activation fold change (@ [uM]) / Maximum Nrf2 Activation Fold Change: DLD-1/ARE-E2; for Maximum Nrf2 Activation Fold Change: luciferase fold change over DMSO control; for Activation of ARE-dependent signaling of the luciferase reporter construct: summary in words of Table 1 (both reporter cell lines). How it is done: (§1) Human cancer cell line DLD-1 and breast cancer cell line MCF7 reporter stable cell lines were generated by transfection with a firefly luciferase reporter construct harboring the luciferase cDNA cloned downstream of eight catenated copies of the antioxidant response element (ARE: SEQ ID NO.:1).
(§2) To measure Nrf2 activation in the ARE-luciferase reporter cell lines, the cells were plated in 96-well plates at 20-50 k cells/well 24 hours prior to stimulation with the test compounds. The test compounds were prepared in dimethylsulfoxide (DMSO) and diluted with culture media to required concentrations (final DMSO concentrations <0.3%). The reporter cells were harvested 24 hours-48 hours after addition of the compounds and lysed for detection of luciferase activity. Luciferase activity in the lysates was monitored using the Bright-Glo Luciferase Assay System of Promega and Tecan Genios Pro plate reader.
(§3) Luciferase induction in the compound-treated cells was calculated as fold change over the baseline activity detected in control cultures treated with DMSO-containing media.

The test system of assay [2] is Nrf2 (ARE-luciferase reporter) in MCF7/ARE-D3 cells. Briefly: Nrf2 activation cell-based assay, ARE-luciferase reporter, MCF7/ARE-D3 cell line. The settings on record: for Maximum Nrf2 Activation Fold Change: luciferase fold change over DMSO control. Details: species or system Human. The protocol: as §1, §2, §3

Take `COC(=O)/C=C/C(=O)O[Si](C)(C)OC(=O)/C=C/C(=O)OC` [Compound 11, (E)-O,O′-(dimethylsilanediyl)dimethyl difumarate]: the “Concentration at maximum Nrf2 activation fold change (@ [uM])” value in assay [1] (24 hr stimulation) is 1000 µM; in assay [1] (48 hr stimulation), 1000 µM; in assay [2] (24 hr stimulation), 750 µM; in assay [2] (48 hr stimulation) it was 500 µM. In addition, the “Maximum Nrf2 Activation Fold Change” value in assay [1] (24 hr stimulation) is 42; in assay [1] (48 hr stimulation) it was 43; in assay [2] (24 hr stimulation), 97; in assay [2] (48 hr stimulation), 126. Also, the “Activation of ARE-dependent signaling of the luciferase reporter construct” value in assay [1] is recorded as “able to activate ARE-dependent signaling”.

For `COC(=O)/C=C/C(=O)OC[Si](OC)(OC)OC` [Compound 12, methyl ((trimethoxysilyl)methyl) fumarate], the “Concentration at maximum Nrf2 activation fold change (@ [uM])” value in assay [1] (24 hr stimulation) is 250 µM; in assay [1] (48 hr stimulation) it was 375 µM; in assay [2] (24 hr stimulation), 500 µM; in assay [2] (48 hr stimulation), 500 µM. For the same molecule, the “Maximum Nrf2 Activation Fold Change” value in assay [1] (24 hr stimulation) is 24; in assay [1] (48 hr stimulation), 48; in assay [2] (24 hr stimulation) it was 49; in assay [2] (48 hr stimulation), 65. Also, in assay [1], the “Activation of ARE-dependent signaling of the luciferase reporter construct” value is recorded as “able to activate ARE-dependent signaling”.

As to `COC(=O)/C=C/C(=O)OC` [DMF, dimethyl fumarate, reference compound], the “Concentration at maximum Nrf2 activation fold change (@ [uM])” value in assay [1] (24 hr stimulation) is 31 µM; in assay [1] (48 hr stimulation), 47 µM; in assay [2] (24 hr stimulation), 94 µM; in assay [2] (48 hr stimulation), 94 µM. The “Maximum Nrf2 Activation Fold Change” value is recorded as 11 in assay [1] (24 hr stimulation), 13 in assay [1] (48 hr stimulation), 24 in assay [2] (24 hr stimulation) and 45 in assay [2] (48 hr stimulation).

With `COC(=O)/C=C/C(=O)O` [MMF, monomethyl fumarate, reference compound], the “Concentration at maximum Nrf2 activation fold change (@ [uM])” value in assay [1] (24 hr stimulation), in assay [1] (48 hr stimulation), in assay [2] (24 hr stimulation) and in assay [2] (48 hr stimulation) was 1000 µM each time. In addition, the “Maximum Nrf2 Activation Fold Change” value is 7 in assay [1] (24 hr stimulation), 14 in assay [1] (48 hr stimulation), 56 in assay [2] (24 hr stimulation) and 88 in assay [2] (48 hr stimulation).
